Molecular target: T1, S-type amylase (Calibzyme S) (Homo sapiens, UniProt P0DUB6)
T1 construct: purchased International Reagents Corporation Calibzyme S
T1 sequence (P0DUB6 16-511): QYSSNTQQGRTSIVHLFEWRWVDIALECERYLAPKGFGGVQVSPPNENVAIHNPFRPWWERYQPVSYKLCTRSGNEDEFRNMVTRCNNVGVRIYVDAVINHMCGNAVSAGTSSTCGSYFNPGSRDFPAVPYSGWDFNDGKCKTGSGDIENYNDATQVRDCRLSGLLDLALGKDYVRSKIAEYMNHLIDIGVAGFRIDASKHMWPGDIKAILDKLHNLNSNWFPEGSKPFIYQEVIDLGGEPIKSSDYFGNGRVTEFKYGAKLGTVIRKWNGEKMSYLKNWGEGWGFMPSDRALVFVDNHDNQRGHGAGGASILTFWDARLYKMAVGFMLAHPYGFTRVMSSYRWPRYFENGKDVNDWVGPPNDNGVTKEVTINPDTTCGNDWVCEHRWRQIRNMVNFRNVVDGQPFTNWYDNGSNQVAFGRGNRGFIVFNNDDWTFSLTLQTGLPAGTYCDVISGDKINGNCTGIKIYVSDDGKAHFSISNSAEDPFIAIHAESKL
Assay: amylase isozyme activity assay with potassium thiocyanate as activator, S-type amylase sample
Format: biochemical
Conditions: for Relative sensitivity: G3CNP at 900 mM = 100; for Percent residual enzyme activity: composition A/B
Protocol: A reagent for amylase isozyme activity assay comprising each composition as mentioned below was prepared. In the Table showing the composition, GalG2CNP (Example) is 2-chloro-4-nitrophenyl 4-O-β-D-galactopyranosylmaltoside, and G3CNP (Comparative Example) is 2-chloro-4-nitrophenylmaltotrioside.
S-type amylase-inhibiting antibody 88E8 (manufactured by Roche Diagnostics K.K.) 20 mg/L
S-type amylase-inhibiting antibody 66C7 (manufactured by Roche Diagnostics K.K.) 5 mg/L
Substrate (GalG2CNP (Example) or G3CNP (Comparative Example)) 2.6 mM
(3) S-type Amylase (Calibzyme S, Manufactured by International Reagents Corporation)
Each sample (0.05 mL was added to the reagent A (3 mL) and the reagent B (3 mL), respectively, and the mixtures were allowed to stand at 37° C. for 3 minutes. Then, the change in absorbance at 405 nm was assayed, and the change in absorbance per minute was calculated. The results are shown in Tables 1 and 2.
In the Tables, P is the case where P-type amylase was used as the sample, and S is the case where S-type amylase was used.
Percent residual enzyme activity (%)=(change in absorbance of composition A)/(change in absorbance of composition B)×100
Relative sensitivity (%)=(change in absorbance of composition B)/(change in absorbance of Comparative Example wherein potassium thiocyanate was 900 mM)×100

O=[N+]([O-])c1ccc(O[C@H]2O[C@H](CO)[C@@H](O[C@H]3O[C@H](CO)[C@@H](O[C@@H]4O[C@H](CO)[C@H](O)[C@H](O)[C@H]4O)[C@H](O)[C@H]3O)[C@H](O)[C@H]2O)c(Cl)c1 [GalG2CNP, 2-chloro-4-nitrophenyl 4-O-β-D-galactopyranosylmaltoside]
Change in absorbance, Containing Antibody (Composition A) (potassium thiocyanate 0 mM): 0.9 mABS/min | Change in absorbance, Without antibody (Composition B) (potassium thiocyanate 0 mM): 14.3 mABS/min | Relative sensitivity (potassium thiocyanate 0 mM): 32.0% | Percent residual enzyme activity (potassium thiocyanate 0 mM): 6.3% | Change in absorbance, Containing Antibody (Composition A) (potassium thiocyanate 50 mM): 1.4 mABS/min | Change in absorbance, Without antibody (Composition B) (potassium thiocyanate 50 mM): 31.1 mABS/min | Relative sensitivity (potassium thiocyanate 50 mM): 69.6% | Percent residual enzyme activity (potassium thiocyanate 50 mM): 4.5% | Change in absorbance, Containing Antibody (Composition A) (potassium thiocyanate 100 mM): 1.7 mABS/min | Change in absorbance, Without antibody (Composition B) (potassium thiocyanate 100 mM): 40.2 mABS/min | Relative sensitivity (potassium thiocyanate 100 mM): 89.9% | Percent residual enzyme activity (potassium thiocyanate 100 mM): 4.2% | Change in absorbance, Containing Antibody (Composition A) (potassium thiocyanate 140 mM): 1.8 mABS/min | Change in absorbance, Without antibody (Composition B) (potassium thiocyanate 140 mM): 44.6 mABS/min | Relative sensitivity (potassium thiocyanate 140 mM): 99.8% | Percent residual enzyme activity (potassium thiocyanate 140 mM): 4.0% | Change in absorbance, Containing Antibody (Composition A) (potassium thiocyanate 200 mM): 2.2 mABS/min | Change in absorbance, Without antibody (Composition B) (potassium thiocyanate 200 mM): 50.0 mABS/min | Relative sensitivity (potassium thiocyanate 200 mM): 111.9% | Percent residual enzyme activity (potassium thiocyanate 200 mM): 4.4% | Change in absorbance, Containing Antibody (Composition A) (potassium thiocyanate 300 mM): 3.0 mABS/min | Change in absorbance, Without antibody (Composition B) (potassium thiocyanate 300 mM): 53.6 mABS/min | Relative sensitivity (potassium thiocyanate 300 mM): 119.9% | Percent residual enzyme activity (potassium thiocyanate 300 mM): 5.6% | Change in absorbance, Containing Antibody (Composition A) (potassium thiocyanate 400 mM): 3.8 mABS/min | Change in absorbance, Without antibody (Composition B) (potassium thiocyanate 400 mM): 54.5 mABS/min | Relative sensitivity (potassium thiocyanate 400 mM): 121.9% | Percent residual enzyme activity (potassium thiocyanate 400 mM): 7.0% | Change in absorbance, Containing Antibody (Composition A) (potassium thiocyanate 500 mM): 4.7 mABS/min | Change in absorbance, Without antibody (Composition B) (potassium thiocyanate 500 mM): 53.7 mABS/min | Relative sensitivity (potassium thiocyanate 500 mM): 120.1% | Percent residual enzyme activity (potassium thiocyanate 500 mM): 8.8% | Change in absorbance, Containing Antibody (Composition A) (potassium thiocyanate 600 mM): 5.7 mABS/min | Change in absorbance, Without antibody (Composition B) (potassium thiocyanate 600 mM): 51.9 mABS/min | Relative sensitivity (potassium thiocyanate 600 mM): 116.1% | Percent residual enzyme activity (potassium thiocyanate 600 mM): 11.0% | Change in absorbance, Containing Antibody (Composition A) (potassium thiocyanate 700 mM): 7.2 mABS/min | Change in absorbance, Without antibody (Composition B) (potassium thiocyanate 700 mM): 48.6 mABS/min | Relative sensitivity (potassium thiocyanate 700 mM): 108.7% | Percent residual enzyme activity (potassium thiocyanate 700 mM): 14.8% | Change in absorbance, Containing Antibody (Composition A) (potassium thiocyanate 800 mM): 8.2 mABS/min | Change in absorbance, Without antibody (Composition B) (potassium thiocyanate 800 mM): 47.1 mABS/min | Relative sensitivity (potassium thiocyanate 800 mM): 105.4% | Percent residual enzyme activity (potassium thiocyanate 800 mM): 17.4% | Change in absorbance, Containing Antibody (Composition A) (potassium thiocyanate 900 mM): 9.6 mABS/min | Change in absorbance, Without antibody (Composition B) (potassium thiocyanate 900 mM): 43.3 mABS/min | Relative sensitivity (potassium thiocyanate 900 mM): 96.9% | Percent residual enzyme activity (potassium thiocyanate 900 mM): 22.2%

O=[N+]([O-])c1ccc(O[C@H]2O[C@H](CO)[C@@H](O[C@H]3O[C@H](CO)[C@@H](O[C@H]4O[C@H](CO)[C@@H](O)[C@H](O)[C@H]4O)[C@H](O)[C@H]3O)[C@H](O)[C@H]2O)c(Cl)c1 [Example G3CNP, 2-chloro-4-nitrophenylmaltotrioside, reference compound]
Change in absorbance, Containing Antibody (Composition A) (potassium thiocyanate 0 mM): 0.5 mABS/min | Change in absorbance, Without antibody (Composition B) (potassium thiocyanate 0 mM): 4.9 mABS/min | Relative sensitivity (potassium thiocyanate 0 mM): 11.0% | Percent residual enzyme activity (potassium thiocyanate 0 mM): 10.2% | Change in absorbance, Containing Antibody (Composition A) (potassium thiocyanate 50 mM): 0.7 mABS/min | Change in absorbance, Without antibody (Composition B) (potassium thiocyanate 50 mM): 14.8 mABS/min | Relative sensitivity (potassium thiocyanate 50 mM): 33.1% | Percent residual enzyme activity (potassium thiocyanate 50 mM): 4.7% | Change in absorbance, Containing Antibody (Composition A) (potassium thiocyanate 100 mM): 0.9 mABS/min | Change in absorbance, Without antibody (Composition B) (potassium thiocyanate 100 mM): 21.9 mABS/min | Relative sensitivity (potassium thiocyanate 100 mM): 49.0% | Percent residual enzyme activity (potassium thiocyanate 100 mM): 4.1% | Change in absorbance, Containing Antibody (Composition A) (potassium thiocyanate 140 mM): 1.3 mABS/min | Change in absorbance, Without antibody (Composition B) (potassium thiocyanate 140 mM): 26.6 mABS/min | Relative sensitivity (potassium thiocyanate 140 mM): 59.5% | Percent residual enzyme activity (potassium thiocyanate 140 mM): 4.9% | Change in absorbance, Containing Antibody (Composition A) (potassium thiocyanate 200 mM): 1.5 mABS/min | Change in absorbance, Without antibody (Composition B) (potassium thiocyanate 200 mM): 31.4 mABS/min | Relative sensitivity (potassium thiocyanate 200 mM): 70.2% | Percent residual enzyme activity (potassium thiocyanate 200 mM): 4.8% | Change in absorbance, Containing Antibody (Composition A) (potassium thiocyanate 300 mM): 2.2 mABS/min | Change in absorbance, Without antibody (Composition B) (potassium thiocyanate 300 mM): 39.7 mABS/min | Relative sensitivity (potassium thiocyanate 300 mM): 88.8% | Percent residual enzyme activity (potassium thiocyanate 300 mM): 5.5% | Change in absorbance, Containing Antibody (Composition A) (potassium thiocyanate 400 mM): 3.3 mABS/min | Change in absorbance, Without antibody (Composition B) (potassium thiocyanate 400 mM): 43.2 mABS/min | Relative sensitivity (potassium thiocyanate 400 mM): 96.6% | Percent residual enzyme activity (potassium thiocyanate 400 mM): 7.6% | Change in absorbance, Containing Antibody (Composition A) (potassium thiocyanate 500 mM): 4.6 mABS/min | Change in absorbance, Without antibody (Composition B) (potassium thiocyanate 500 mM): 45.8 mABS/min | Relative sensitivity (potassium thiocyanate 500 mM): 102.5% | Percent residual enzyme activity (potassium thiocyanate 500 mM): 10.0% | Change in absorbance, Containing Antibody (Composition A) (potassium thiocyanate 600 mM): 5.4 mABS/min | Change in absorbance, Without antibody (Composition B) (potassium thiocyanate 600 mM): 47.3 mABS/min | Relative sensitivity (potassium thiocyanate 600 mM): 105.8% | Percent residual enzyme activity (potassium thiocyanate 600 mM): 11.4% | Change in absorbance, Containing Antibody (Composition A) (potassium thiocyanate 700 mM): 7.0 mABS/min | Change in absorbance, Without antibody (Composition B) (potassium thiocyanate 700 mM): 47.1 mABS/min | Relative sensitivity (potassium thiocyanate 700 mM): 105.4% | Percent residual enzyme activity (potassium thiocyanate 700 mM): 14.9% | Change in absorbance, Containing Antibody (Composition A) (potassium thiocyanate 800 mM): 8.4 mABS/min | Change in absorbance, Without antibody (Composition B) (potassium thiocyanate 800 mM): 45.8 mABS/min | Relative sensitivity (potassium thiocyanate 800 mM): 102.5% | Percent residual enzyme activity (potassium thiocyanate 800 mM): 18.3% | Change in absorbance, Containing Antibody (Composition A) (potassium thiocyanate 900 mM): 10.0 mABS/min | Change in absorbance, Without antibody (Composition B) (potassium thiocyanate 900 mM): 44.7 mABS/min | Relative sensitivity (potassium thiocyanate 900 mM): 100.0% | Percent residual enzyme activity (potassium thiocyanate 900 mM): 22.4%
